Reference: US10765114B2, “4-amino-6-(pyridyl and 2-substitutedphenyl)-picolinates and 6-amino-2-(pyridyl and 2-substitutedphenyl)-pyrimidine-4-carboxylates and their use as herbicides” (Dow AgroSciences LLC, priority 2013, dated 2020)

What follows are molecules tested on Key Broadleaf Weed and Crop Species (assay: Post-Emergent Test II (Table 5)). Conditions: Abutilon theophrasti, post-emergence, 336 h, ABUTH: velvetleaf (Abutilon theophrasti), application rate 70 (kg ai/ha; footnote: g ai/ha), read-out: Visual Growth Reduction (%) 14 Days After Application ABUTH.
Format: in vivo
Outline: (§1)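 Visual injury ratings (0 = no injury, 100 = complete kill) were taken 14 days after treatment relative to untreated plants. Seedlings at the first or second true leaf stage received an overhead spray at 187 L/ha, and solvent-blank sprayed plants served as controls.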

SMILES	pest or weed control at 70 g/ha [%]
Nc1cc(-c2ccc(Cl)c(F)c2CF)nc(C(=O)O)c1Cl [Compound 80, 4-Amino-3-chloro-6-(4-chloro-3-fluoro-2-(fluoromethyl)phenyl)picolinic acid]	75 to 84

Same assay, conditions: Abutilon theophrasti, post-emergence, 336 h, ABUTH: velvetleaf (Abutilon theophrasti), application rate 140 (kg ai/ha; footnote: g ai/ha), read-out: Visual Growth Reduction (%) 14 Days After Application ABUTH

SMILES	pest or weed control at 140 g/ha [%]
Nc1cc(-c2ccc(Cl)c(F)c2CF)nc(C(=O)O)c1Cl [Compound 80, 4-Amino-3-chloro-6-(4-chloro-3-fluoro-2-(fluoromethyl)phenyl)picolinic acid]	75 to 84

Same assay, conditions: Amaranthus retroflexus, post-emergence, 336 h, AMARE: redroot pigweed (Amaranthus retroflexus), application rate 70 (kg ai/ha; footnote: g ai/ha), read-out: Visual Growth Reduction (%) 14 Days After Application AMARE

SMILES	pest or weed control at 70 g/ha [%]
Nc1cc(-c2ccc(Cl)c(F)c2CF)nc(C(=O)O)c1Cl [Compound 80, 4-Amino-3-chloro-6-(4-chloro-3-fluoro-2-(fluoromethyl)phenyl)picolinic acid]	95 to 100

Same assay, conditions: Amaranthus retroflexus, post-emergence, 336 h, AMARE: redroot pigweed (Amaranthus retroflexus), application rate 140 (kg ai/ha; footnote: g ai/ha), read-out: Visual Growth Reduction (%) 14 Days After Application AMARE

SMILES	pest or weed control at 140 g/ha [%]
Nc1cc(-c2ccc(Cl)c(F)c2CF)nc(C(=O)O)c1Cl [Compound 80, 4-Amino-3-chloro-6-(4-chloro-3-fluoro-2-(fluoromethyl)phenyl)picolinic acid]	95 to 100

Same assay, conditions: Brassica napus, post-emergence, 336 h, BRSSS: oilseed rape, canola (Brassica napus), application rate 70 (kg ai/ha; footnote: g ai/ha), read-out: Visual Growth Reduction (%) 14 Days After Application BRSSS

SMILES	pest or weed control at 70 g/ha [%]
Nc1cc(-c2ccc(Cl)c(F)c2CF)nc(C(=O)O)c1Cl [Compound 80, 4-Amino-3-chloro-6-(4-chloro-3-fluoro-2-(fluoromethyl)phenyl)picolinic acid]	95 to 100

Same assay, conditions: Brassica napus, post-emergence, 336 h, BRSSS: oilseed rape, canola (Brassica napus), application rate 140 (kg ai/ha; footnote: g ai/ha), read-out: Visual Growth Reduction (%) 14 Days After Application BRSSS

SMILES	pest or weed control at 140 g/ha [%]
Nc1cc(-c2ccc(Cl)c(F)c2CF)nc(C(=O)O)c1Cl [Compound 80, 4-Amino-3-chloro-6-(4-chloro-3-fluoro-2-(fluoromethyl)phenyl)picolinic acid]	95 to 100

Same assay, conditions: Chenopodium album, post-emergence, 336 h, CHEAL: lambsquarters (Chenopodium album), application rate 70 (kg ai/ha; footnote: g ai/ha), read-out: Visual Growth Reduction (%) 14 Days After Application CHEAL

SMILES	pest or weed control at 70 g/ha [%]
Nc1cc(-c2ccc(Cl)c(F)c2CF)nc(C(=O)O)c1Cl [Compound 80, 4-Amino-3-chloro-6-(4-chloro-3-fluoro-2-(fluoromethyl)phenyl)picolinic acid]	95 to 100

Same assay, conditions: Chenopodium album, post-emergence, 336 h, CHEAL: lambsquarters (Chenopodium album), application rate 140 (kg ai/ha; footnote: g ai/ha), read-out: Visual Growth Reduction (%) 14 Days After Application CHEAL

SMILES	pest or weed control at 140 g/ha [%]
Nc1cc(-c2ccc(Cl)c(F)c2CF)nc(C(=O)O)c1Cl [Compound 80, 4-Amino-3-chloro-6-(4-chloro-3-fluoro-2-(fluoromethyl)phenyl)picolinic acid]	95 to 100

Same assay, conditions: Euphorbia heterophylla, post-emergence, 336 h, EPHHL: wild poinsettia (Euphorbia heterophylla), application rate 70 (kg ai/ha; footnote: g ai/ha), read-out: Visual Growth Reduction (%) 14 Days After Application EPHHL

SMILES	pest or weed control at 70 g/ha [%]
Nc1cc(-c2ccc(Cl)c(F)c2CF)nc(C(=O)O)c1Cl [Compound 80, 4-Amino-3-chloro-6-(4-chloro-3-fluoro-2-(fluoromethyl)phenyl)picolinic acid]	0 to 29

Same assay, conditions: Euphorbia heterophylla, post-emergence, 336 h, EPHHL: wild poinsettia (Euphorbia heterophylla), application rate 140 (kg ai/ha; footnote: g ai/ha), read-out: Visual Growth Reduction (%) 14 Days After Application EPHHL

SMILES	pest or weed control at 140 g/ha [%]
Nc1cc(-c2ccc(Cl)c(F)c2CF)nc(C(=O)O)c1Cl [Compound 80, 4-Amino-3-chloro-6-(4-chloro-3-fluoro-2-(fluoromethyl)phenyl)picolinic acid]	0 to 29

Same assay, conditions: Helianthus annuus, post-emergence, 336 h, HELAN: sunflower (Helianthus annuus), application rate 70 (kg ai/ha; footnote: g ai/ha), read-out: Visual Growth Reduction (%) 14 Days After Application HELAN

SMILES	pest or weed control at 70 g/ha [%]
Nc1cc(-c2ccc(Cl)c(F)c2CF)nc(C(=O)O)c1Cl [Compound 80, 4-Amino-3-chloro-6-(4-chloro-3-fluoro-2-(fluoromethyl)phenyl)picolinic acid]	85 to 94

Same assay, conditions: Helianthus annuus, post-emergence, 336 h, HELAN: sunflower (Helianthus annuus), application rate 140 (kg ai/ha; footnote: g ai/ha), read-out: Visual Growth Reduction (%) 14 Days After Application HELAN

SMILES	pest or weed control at 140 g/ha [%]
Nc1cc(-c2ccc(Cl)c(F)c2CF)nc(C(=O)O)c1Cl [Compound 80, 4-Amino-3-chloro-6-(4-chloro-3-fluoro-2-(fluoromethyl)phenyl)picolinic acid]	85 to 94

Same assay, conditions: Viola tricolor, post-emergence, 336 h, VIOTR: wild pansy (Viola tricolor), application rate 70 (kg ai/ha; footnote: g ai/ha), read-out: Visual Growth Reduction (%) 14 Days After Application VIOTR

SMILES	pest or weed control at 70 g/ha [%]
Nc1cc(-c2ccc(Cl)c(F)c2CF)nc(C(=O)O)c1Cl [Compound 80, 4-Amino-3-chloro-6-(4-chloro-3-fluoro-2-(fluoromethyl)phenyl)picolinic acid]	0 to 29

Same assay, conditions: Viola tricolor, post-emergence, 336 h, VIOTR: wild pansy (Viola tricolor), application rate 140 (kg ai/ha; footnote: g ai/ha), read-out: Visual Growth Reduction (%) 14 Days After Application VIOTR

SMILES	pest or weed control at 140 g/ha [%]
Nc1cc(-c2ccc(Cl)c(F)c2CF)nc(C(=O)O)c1Cl [Compound 80, 4-Amino-3-chloro-6-(4-chloro-3-fluoro-2-(fluoromethyl)phenyl)picolinic acid]	0 to 29

The molecules below were run on Key Grass and Sedge Weeds as well as Grass Crops (assay: Post-Emergent Test II (Table 6)). Conditions: post-emergence, 336 h, CYPSS, 70 g ai/ha, 14 days after application, read-out: Visual Growth Reduction (%) 14 Days After Application CYPSS.
Format: in vivo
Outline: as §1

SMILES	pest or weed control at 70 g/ha [%]
Nc1cc(-c2ccc(Cl)c(F)c2CF)nc(C(=O)O)c1Cl [Compound 80, 4-Amino-3-chloro-6-(4-chloro-3-fluoro-2-(fluoromethyl)phenyl)picolinic acid]	0 to 29

Same assay, conditions: post-emergence, 336 h, CYPSS, 140 g ai/ha, 14 days after application, read-out: Visual Growth Reduction (%) 14 Days After Application CYPSS

SMILES	pest or weed control at 140 g/ha [%]
Nc1cc(-c2ccc(Cl)c(F)c2CF)nc(C(=O)O)c1Cl [Compound 80, 4-Amino-3-chloro-6-(4-chloro-3-fluoro-2-(fluoromethyl)phenyl)picolinic acid]	0 to 29

Same assay, conditions: post-emergence, 336 h, DIGSA: crabgrass (Digitaria sanguinalis), 70 g ai/ha, 14 days after application, read-out: Visual Growth Reduction (%) 14 Days After Application DIGSA

SMILES	pest or weed control at 70 g/ha [%]
Nc1cc(-c2ccc(Cl)c(F)c2CF)nc(C(=O)O)c1Cl [Compound 80, 4-Amino-3-chloro-6-(4-chloro-3-fluoro-2-(fluoromethyl)phenyl)picolinic acid]	0 to 29

Same assay, conditions: post-emergence, 336 h, DIGSA: crabgrass (Digitaria sanguinalis), 140 g ai/ha, 14 days after application, read-out: Visual Growth Reduction (%) 14 Days After Application DIGSA

SMILES	pest or weed control at 140 g/ha [%]
Nc1cc(-c2ccc(Cl)c(F)c2CF)nc(C(=O)O)c1Cl [Compound 80, 4-Amino-3-chloro-6-(4-chloro-3-fluoro-2-(fluoromethyl)phenyl)picolinic acid]	0 to 29

Same assay, conditions: post-emergence, 336 h, ECHSS, 70 g ai/ha, 14 days after application, read-out: Visual Growth Reduction (%) 14 Days After Application ECHSS

SMILES	pest or weed control at 70 g/ha [%]
Nc1cc(-c2ccc(Cl)c(F)c2CF)nc(C(=O)O)c1Cl [Compound 80, 4-Amino-3-chloro-6-(4-chloro-3-fluoro-2-(fluoromethyl)phenyl)picolinic acid]	0 to 29

Same assay, conditions: post-emergence, 336 h, ECHSS, 140 g ai/ha, 14 days after application, read-out: Visual Growth Reduction (%) 14 Days After Application ECHSS

SMILES	pest or weed control at 140 g/ha [%]
Nc1cc(-c2ccc(Cl)c(F)c2CF)nc(C(=O)O)c1Cl [Compound 80, 4-Amino-3-chloro-6-(4-chloro-3-fluoro-2-(fluoromethyl)phenyl)picolinic acid]	0 to 29

Same assay, conditions: post-emergence, 336 h, ORYSS (crop), 70 g ai/ha, 14 days after application, read-out: Visual Growth Reduction (%) 14 Days After Application ORYSS

SMILES	pest or weed control at 70 g/ha [%]
Nc1cc(-c2ccc(Cl)c(F)c2CF)nc(C(=O)O)c1Cl [Compound 80, 4-Amino-3-chloro-6-(4-chloro-3-fluoro-2-(fluoromethyl)phenyl)picolinic acid]	0 to 29

Same assay, conditions: post-emergence, 336 h, ORYSS (crop), 140 g ai/ha, 14 days after application, read-out: Visual Growth Reduction (%) 14 Days After Application ORYSS

SMILES	pest or weed control at 140 g/ha [%]
Nc1cc(-c2ccc(Cl)c(F)c2CF)nc(C(=O)O)c1Cl [Compound 80, 4-Amino-3-chloro-6-(4-chloro-3-fluoro-2-(fluoromethyl)phenyl)picolinic acid]	0 to 29

Same assay, conditions: post-emergence, 336 h, SETFA: giant foxtail (Setaria faberi), 70 g ai/ha, 14 days after application, read-out: Visual Growth Reduction (%) 14 Days After Application SETFA

SMILES	pest or weed control at 70 g/ha [%]
Nc1cc(-c2ccc(Cl)c(F)c2CF)nc(C(=O)O)c1Cl [Compound 80, 4-Amino-3-chloro-6-(4-chloro-3-fluoro-2-(fluoromethyl)phenyl)picolinic acid]	0 to 29

Same assay, conditions: post-emergence, 336 h, SETFA: giant foxtail (Setaria faberi), 140 g ai/ha, 14 days after application, read-out: Visual Growth Reduction (%) 14 Days After Application SETFA

SMILES	pest or weed control at 140 g/ha [%]
Nc1cc(-c2ccc(Cl)c(F)c2CF)nc(C(=O)O)c1Cl [Compound 80, 4-Amino-3-chloro-6-(4-chloro-3-fluoro-2-(fluoromethyl)phenyl)picolinic acid]	0 to 29

Same assay, conditions: post-emergence, 336 h, SORVU: grain sorghum (Sorghum vulgare), 70 g ai/ha, 14 days after application, read-out: Visual Growth Reduction (%) 14 Days After Application SORVU

SMILES	pest or weed control at 70 g/ha [%]
Nc1cc(-c2ccc(Cl)c(F)c2CF)nc(C(=O)O)c1Cl [Compound 80, 4-Amino-3-chloro-6-(4-chloro-3-fluoro-2-(fluoromethyl)phenyl)picolinic acid]	0 to 29

Same assay, conditions: post-emergence, 336 h, SORVU: grain sorghum (Sorghum vulgare), 140 g ai/ha, 14 days after application, read-out: Visual Growth Reduction (%) 14 Days After Application SORVU

SMILES	pest or weed control at 140 g/ha [%]
Nc1cc(-c2ccc(Cl)c(F)c2CF)nc(C(=O)O)c1Cl [Compound 80, 4-Amino-3-chloro-6-(4-chloro-3-fluoro-2-(fluoromethyl)phenyl)picolinic acid]	0 to 29

Same assay, conditions: post-emergence, 336 h, TRZSS (crop), 70 g ai/ha, 14 days after application, read-out: Visual Growth Reduction (%) 14 Days After Application TRZSS

SMILES	pest or weed control at 70 g/ha [%]
Nc1cc(-c2ccc(Cl)c(F)c2CF)nc(C(=O)O)c1Cl [Compound 80, 4-Amino-3-chloro-6-(4-chloro-3-fluoro-2-(fluoromethyl)phenyl)picolinic acid]	0 to 29

Same assay, conditions: post-emergence, 336 h, TRZSS (crop), 140 g ai/ha, 14 days after application, read-out: Visual Growth Reduction (%) 14 Days After Application TRZSS

SMILES	pest or weed control at 140 g/ha [%]
Nc1cc(-c2ccc(Cl)c(F)c2CF)nc(C(=O)O)c1Cl [Compound 80, 4-Amino-3-chloro-6-(4-chloro-3-fluoro-2-(fluoromethyl)phenyl)picolinic acid]	0 to 29

Same assay, conditions: post-emergence, 336 h, ZEAMX: maize, corn (Zea mays), 70 g ai/ha, 14 days after application, read-out: Visual Growth Reduction (%) 14 Days After Application ZEAMX

SMILES	pest or weed control at 70 g/ha [%]
Nc1cc(-c2ccc(Cl)c(F)c2CF)nc(C(=O)O)c1Cl [Compound 80, 4-Amino-3-chloro-6-(4-chloro-3-fluoro-2-(fluoromethyl)phenyl)picolinic acid]	0 to 29

Same assay, conditions: post-emergence, 336 h, ZEAMX: maize, corn (Zea mays), 140 g ai/ha, 14 days after application, read-out: Visual Growth Reduction (%) 14 Days After Application ZEAMX

SMILES	pest or weed control at 140 g/ha [%]
Nc1cc(-c2ccc(Cl)c(F)c2CF)nc(C(=O)O)c1Cl [Compound 80, 4-Amino-3-chloro-6-(4-chloro-3-fluoro-2-(fluoromethyl)phenyl)picolinic acid]	0 to 29
